Test results published in US6143737A, “Progesterone analogs to reverse multidrug resistance” (priority 1996, dated 2000).

Experiments:
MCF-7^ADR cells [1] = assay: [^3 H] VBL accumulation in MCF-7^ADR cells; assay type: cell-based, human
Protocol: 5:231-243 (1985)) and provide sufficient free TAM levels in the ER-positive cells.
(§1) While many PGP-reversing agents have been studied, the majority are maximally active in vitro at concentrations≥10 μM. It is widely acknowledged that, for many of these compounds, it is impossible to achieve this level in the sera of patients without inducing severe dose limiting toxicities (Miller, T. P. et al., J. Clin. Oncol. 9:17-24 (1991); Murren & Hait, Oncology Res. 1:1-6 (1992); Dalton, W. D. et al., J. Clin. Oncol. 7:415-424 (1989); Miller, R. L. et al., J. Clin Oncol. 6:880-888 (1988)). Our compounds were evaluated in vitro using concentrations likely to be pharmacologically relevant. […] To determine potency relative to verapamil, we compared the equieffective concentrations. […]. Oncol. 9:17-24 (1991); Dalton, W. D. et al., J. Clin. Oncol. 7:415-424 (1989)). Similar serum levels of progestagens are achieved in patients receiving standard dosing, e.g. megesterol acetate (0.7 μM) (Lundgren & Lonning, J. Steroid. Biochem. 36:105-109 (1990)).
(§2) We then determined the relative potency for increasing [^3 H] VBL accumulation in control (parental) and resistant cells (MCF-7^ADR) and/or MDR1 transduced in comparison with progesterone and verapamil. […]. […]

CL 10.3 cells = assay: [^3 H] VBL accumulation in MDR1-transduced CL 10.3 cells; assay type: cell-based, human
Protocol: While many PGP-reversing agents have been studied, the majority are maximally active in vitro at concentrations≥10 μM. […] Our compounds were evaluated in vitro using concentrations likely to be pharmacologically relevant. […] To determine potency relative to verapamil, we compared the equieffective concentrations. […] Oncol.
We then determined the relative potency for increasing [^3 H] VBL accumulation in control (parental) and resistant cells (MCF-7^ADR) and/or MDR1 transduced in comparison with progesterone and verapamil.

[2] = test system: MCF-7^ADR cells and cells transfected with the MDR gene (CL 10.3); assay type: cell-based, human
Protocol: as §1, §2

sensitive parental cells = assay: Effect in sensitive (parental) control cells: VBL accumulation and resistance reversal; assay type: cell-based, human
Text: We then determined the relative potency for increasing [^3 H] VBL accumulation in control (parental) and resistant cells (MCF-7^ADR) and/or MDR1 transduced in comparison with progesterone and verapamil. […]. […] […].
(§3) The ability of compound 4 to reverse both [^3 H]

MCF-7^ADR cells [3] = test system: MCF-7^ADR cells
Protocol: (§4) The growth inhibition experiments, i.e., anchorage dependent and independent assays, are designed to allow evaluation of drug interactions by isobologram analysis. Thus, they include a full definition of the dose-response curves relative to the single agents (untreated and up to 8 drug concentrations), all combinations of 5 concentrations of the modulating agent (e.g., C7 analogue) and up to 9 concentrations of the target agent. […] Briefly, cell monolayers are treated with the appropriate drugs, reversing agents and vehicle(s), the monolayers washed 3 times with growth media, gently trypsinized, and suspended in 1.5 ml growth medium containing 0.6% (w/v) agar at 41° C. […] This agar solution is placed over a solid bottom agar layer and incubated for 10 days at 37° C. Dishes are refed with 500 μl of growth medium on days 3 and 6. Colonies of 50 cells or more (~60 μm diameter) are counted using an Omnicron electronic colony counter. Statistical analyses of colony forming ability will be performed using ANOVA.
(§5) Dose-response curves of the cytotoxic drug are obtained in the absence and presence of the chemosensitizer. The curves are corrected by dividing the observed survival values by the fractional survival to the chemosensitizer alone (where present in the combination), and IC50 values obtained by interpolation on the corrected curves. The activity of the chemosensitizer will be quantified as FS=IC50 (-)/IC50 (+), where FS=Fold Sensitization, and IC50 (-) and IC50 (+) are the cytotoxic drug IC50 s respectively in the absence and presence of the chemosensitizer.

MDA435/LCC6^MDR1 cells = conditions: 1 μM compound 4
Protocol: as §4, §5

PGP-resistant cells = assay: PGP-mediated resistance reversal (VBL cytotoxicity, continuous exposure); assay type: cell-based; conditions: preliminary data
Text: (§6) Information on drug stability in serum also may be indirectly assessed by comparing effects on [^3 H] VBL accumulation with cytotoxicity (reversing) assays using a continuous exposure. For example, Thimmaiah, K. N. et al. (J. Med. Chem. 35:3358-3364 (1992)) reported that some phenoxazine analogues increased [^3 H] VBL accumulation but were ineffective at reversing VBL cytotoxicity. […] VBL accumulation and reversing PGP-mediated resistance.

[4] = assay type: in vitro ADME
Text: as §6, §3

[5] = MCF-7^ADR and MDR-transfected cells, up to

For `CC(=O)C1CCC2C3C(Sc4ccc(NC(=O)NCCc5ccccc5)cc4)CC4=CC(=O)CCC4(C)C3CCC12C` (stereo not shown) [Compound 4], the “concentration equieffective with the ED50 of verapamil for increasing intracellular VBL: fold lower than progesterone” value (MCF-7^ADR cells [1]) was 35 fold, the “concentration equieffective with the ED50 of verapamil for increasing intracellular VBL: fold lower than verapamil” value (MCF-7^ADR cells [1]) was 5 fold and the “concentration equieffective with the ED50 of verapamil for increasing intracellular VBL: fold lower than progesterone” value (CL 10.3 cells) was 30 fold. The “concentration equieffective with the ED50 of verapamil for increasing intracellular VBL: fold lower than verapamil” value (CL 10.3 cells) was 7 fold, the “maximal increase in intercellular VBL relative to verapamil” value [2] was “equivalent to that achievable with verapamil” and the “potency relative to progesterone (fold more potent)” value [2, 5] was “up to 35 fold”. For the same compound, the “potency relative to verapamil, equal-molar basis (ratio of ED50 s)” value [2, 5] was “up to 6 fold”, the “potency relative to verapamil in vitro (VBL accumulation and cytotoxicity)” value ([2]; human) was no less than 6 fold and the “effectiveness among the novel C7 analogs” value ([2]; preliminary analyses) was “more effective of the novel C7 analogs”. For the same compound, the “increasing [^3 H] VBL accumulation” value ([2]; preliminary data) was “highly potent”, the “potency in increasing [^3 H] VBL accumulation relative to the lead compound (progesterone)” value ([2]; up to) was “up to 35 fold” and the “potency in increasing [^3 H] VBL accumulation relative to verapamil” value ([2]; up to) was “up to 7 fold”. The “specificity for PGP” value (sensitive parental cells; PGP-resistant vs sensitive parental cells) was “specific for PGP”, the “activity in sensitive control cell populations” value (sensitive parental cells; sensitive control / parental cells) was “not in sensitive control cell populations” and the “fold sensitization to VBL at VBL's IC50” value (MCF-7^ADR cells [3]; 1 μM compound 4, MCF-7^ADR) was “up to 9 fold”. For the same compound, the “residual VBL resistance” value (MCF-7^ADR cells [3]; MCF-7^ADR, 1 μM compound 4, from an initial 32-fold) was 3.8 fold, the “potency relative to progesterone in increasing VBL cytotoxicity” value (MCF-7^ADR cells [3]; human) was “approximately 23 fold” and the “potency relative to verapamil in increasing VBL cytotoxicity” value (MCF-7^ADR cells [3]; human) was “approximately 6 fold”. The “fold sensitization to VBL at VBL's IC50” value (MDA435/LCC6^MDR1 cells; transduced MDA435/LLC6 cells) was 20 fold, the “residual VBL resistance” value (MDA435/LCC6^MDR1 cells; MDA435/LCC6MDR1, from an initial 49-fold) was 2.4 fold and the “reversing PGP-mediated resistance” value (PGP-resistant cells) was “highly potent”. The stability in vitro [4] was “stable in vitro”.
